The text below walks through data of patent US5547958A, “N-(8α-ergolinyl)-amides” (Schering Aktiengesellschaft, priority 1989, dated 1996).

This experiment has as its system behavior stereotypes on rats (masticatory, licking, or gnawing movements). The experiment in a line: Stereotype-releasing effectiveness on rats 1 hour after i.p. pretreatment (dopamine agonistic action). The format is in vivo. Particulars: probit analysis, n = 8; for ED50 (effective dose, stereotype-releasing effectiveness): 60th-62nd min p.i. As for the experimental part:
The dopamine agonistic action was determined according to Horowski, R. and Wachtel, H. Eur. J. Pharmaz. col. 36: 373-383, 1976. One hour after i.p. pretreatment with test substance or vehicle, the presence of behavior stereotypes on rats (masticatory, licking, or gnawing movements) was determined for 2 minutes (60th-62nd min. p.i.).
Stereotype-releasing effectiveness on rats 1 hour
after i.p. pretreatment. Effective doses (ED50) with 95%
confidence limit were determined with the help of probit

Turning to `CCCN1CC(NC=S)C[C@@H]2c3cccc4[nH]c(C)c(c34)C[C@H]21` (stereo partly shown) [B, N(2-methyl-6-n-propyl-8ergolinyl)-thioformamide], the “ED50 (effective dose, stereotype-releasing effectiveness)” value stood at 0.050 and the “95% Confidence Limit of ED50” value is listed as 0.034-0.079.
In the same order, the values of `CCCN1CC(NC(=S)SC)C[C@@H]2c3cccc4[nH]c(C)c(c34)C[C@H]21` (stereo partly shown) [A, N(2-methyl-6-n-propyl-8ergolinyl)-dithiocarbamic acid methyl ester] are 0.080 and 0.010-0.170.
